Test results reported in US4015974A, “Amido phosphorothiolates” (priority 1972, dated 1977).

Experiments:
Format in all cases: in vivo
[1] = tested on: common purslane (Portulaca oleracea); assay: Pre-emergence application, herbicidal effect on common purslane (Table 1); details: 20 days after application, score 0-5
In short: (§1)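 Pre-emergence soil treatment: seeds sown in pots of about 10 cm and covered with soil, then compounds applied as wettable powder diluted in water. Plants grown in a greenhouse; damage scored 20 days after application from 0 (not damaged) to 5 (completely killed).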

radish = assay: Pre-emergence application, herbicidal effect on radish (Table 1); design: key: 0: not damaged; 5: completely killed; details: 20 days after application, score 0-5
In short: as §1

[2] = tested on: barnyard grass (Echinochloa crus-galli); assay: Water application, herbicidal effect on barnyard grass (Table 2); design: key: 0: not damaged; 5: completely killed; details: 25 days, score 0-5
In short: (§2)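 Flooded paddy-soil pots with 3-leaf-stage transplanted rice and sown barnyard grass; wettable-powder compounds applied to soil under water. Herbicidal effect and rice phytotoxicity, also on spontaneously germinated broad-leaved weeds, scored 0–5 at 25 days after application.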

[3] = tested on: common lambsquarter (Chenopodium album); assay: Pre-emergence application, herbicidal effect on common lambsquarter (Table 1); design: key: 0: not damaged; 5: completely killed; details: 20 days after application, score 0-5
In short: as §1

[4] = tested on: broad-leaved weeds, e.g., monochoria, false pimpernel and toothcup; assay: Water application, herbicidal effect on broad-leaved weeds (Table 2); design: key: 0: no effect; 1: very slightly affected; 2: slightly affected; 3: moderately affected; 4: considerably affected; 5: completely killed; details: 10 g/a, 25 days, score 0-5
Description: Wagner pots of 14 cm. in diameter, which had been packed with 1.5 kg. of paddy field soil, were brought into the state of paddy fields. To the pots were transplanted rice seedlings at the 3-leave stage. Further, seeds of barnyard grass (Echinochloa crus-galli) were sowed in the pots and required amounts of test compounds were applied to the soil under water lodged condition. 25 days after application, the degrees of herbicidal activity and phytotoxity were investigated on above-mentioned plants which had been transplanted and sowed, and on broad-leaved weeds, e.g., monochoria (Monochoria viaginalis Presl.), false pimpernel (Linderna pyxidaria) and toothcup (Rotala indica Koehue), which had been spontaneously germinated. The test compounds were used in the form of wettable powder. The herbicidal effects and the phytotoxity were evaluated as follows by the numerals ranging from 0 to 5.

[5] = tested on: barnyard grass (Echinochloa crus-galli); assay: Pre-emergence application, herbicidal effect on barnyard grass (Table 1); design: key: 0: not damaged; 5: completely killed; details: 20 days after application, score 0-5
In short: as §1

rice = assay: Water application, phytotoxicity on rice (Table 2); design: key: 0: no effect; 1: very slightly affected; 2: slightly affected; 3: moderately affected; 4: considerably affected; 5: completely killed; details: 25 days, score 0-5
In short: as §2

[6] = tested on: large crabgrass (Digitaria sanguinalis); assay: Pre-emergence application, herbicidal effect on large crabgrass (Table 1); design: key: 0: not damaged; 5: completely killed; details: 20 days after application, score 0-5
In short: as §1

[7] = tested on: broad-leaved weeds, e.g., monochoria, false pimpernel and toothcup; assay: Water application, herbicidal effect on broad-leaved weeds (Table 2); design: key: 0: not damaged; 5: completely killed; details: 25 days, score 0-5
In short: as §2

[8] = tested on: redroot pigweed (Amaranthus retroflexus); assay: Pre-emergence application, herbicidal effect on redroot pigweed (Table 1); details: 20 days after application, score 0-5
In short: as §1

Row | SMILES | Herbicidal effect, common purslane ([1]; 10 g./a.) | Herbicidal effect, common purslane ([1]; 20 g./a.) | Herbicidal effect, common purslane ([1]; 40 g./a.) | Herbicidal effect, radish (radish; 10 g./a.) | Herbicidal effect, radish (radish; 20 g./a.) | Herbicidal effect, radish (radish; 40 g./a.) | Herbicidal effects, barnyard grass ([2]; 10 g/a) | Herbicidal effects, barnyard grass ([2]; 20 g/a) | Herbicidal effects, barnyard grass ([2]; 40 g/a) | Herbicidal effect, common lambsquarter ([3]; 10 g./a.) | Herbicidal effect, common lambsquarter ([3]; 20 g./a.) | Herbicidal effect, common lambsquarter ([3]; 40 g./a.) | Herbicidal effects, broad-leaved weeds [4] | Herbicidal effect, barnyard grass ([5]; 10 g./a.) | Herbicidal effect, barnyard grass ([5]; 20 g./a.) | Herbicidal effect, barnyard grass ([5]; 40 g./a.) | Phytotoxicity on rice (rice; 10 g/a) | Phytotoxicity on rice (rice; 20 g/a) | Phytotoxicity on rice (rice; 40 g/a) | Herbicidal effect, large crabgrass ([6]; 10 g./a.) | other results
1 | CCCOP(=O)(SCC(=O)N1CCCCC1C)SC(C)C (stereo not drawn) [Compound 36] | 3 | 4 | 4 | 0 | 0 | 0 | 5 | 5 | 5 | 4 | 4 | 5 | 4 | 4 | 4 | 5 | 0 | 0 | 0 | 4 | Herbicidal effect, large crabgrass ([6]; 20 g./a.): 4; Herbicidal effect, large crabgrass ([6]; 40 g./a.): 5; Herbicidal effects, broad-leaved weeds ([7]; 20 g/a): 5; Herbicidal effects, broad-leaved weeds ([7]; 40 g/a): 5; Herbicidal effect, redroot pigweed ([8]; 10 g./a.): 3; Herbicidal effect, redroot pigweed ([8]; 20 g./a.): 4; Herbicidal effect, redroot pigweed ([8]; 40 g./a.): 4
2 | CCCCCCCCSP(=O)(OCC)SCC(=O)N1CCCCC1C (stereo not drawn) [Compound 8] | 4 | 4 | 4 | 0 | 0 | 0 | 5 | 5 | 5 | 3 | 4 | 4 | 4 | 4 | 4 | 5 | 0 | 0 | 0 | 4 | Herbicidal effect, large crabgrass ([6]; 20 g./a.): 4; Herbicidal effect, large crabgrass ([6]; 40 g./a.): 5; Herbicidal effects, broad-leaved weeds ([7]; 20 g/a): 5; Herbicidal effects, broad-leaved weeds ([7]; 40 g/a): 5; Herbicidal effect, redroot pigweed ([8]; 10 g./a.): 3; Herbicidal effect, redroot pigweed ([8]; 20 g./a.): 4; Herbicidal effect, redroot pigweed ([8]; 40 g./a.): 4
